pIC50, pKi: −log10 of the molar value.

Experiment [1] addresses T1, Sodium channel protein type 9 subunit alpha (Homo sapiens, UniProt Q15858). As to the kind of experiment: Blockade of Nav1.7 by FLIPR TETRA sodium dye assay in presence of KCl salt.
In experiment [2] the target is T1, Sodium channel protein type 9 subunit alpha. The experiment can be described thus: Blockade of Nav1.7 by electrophysiological patch clamp assay.

T1 sequence (Q15858 whole entry): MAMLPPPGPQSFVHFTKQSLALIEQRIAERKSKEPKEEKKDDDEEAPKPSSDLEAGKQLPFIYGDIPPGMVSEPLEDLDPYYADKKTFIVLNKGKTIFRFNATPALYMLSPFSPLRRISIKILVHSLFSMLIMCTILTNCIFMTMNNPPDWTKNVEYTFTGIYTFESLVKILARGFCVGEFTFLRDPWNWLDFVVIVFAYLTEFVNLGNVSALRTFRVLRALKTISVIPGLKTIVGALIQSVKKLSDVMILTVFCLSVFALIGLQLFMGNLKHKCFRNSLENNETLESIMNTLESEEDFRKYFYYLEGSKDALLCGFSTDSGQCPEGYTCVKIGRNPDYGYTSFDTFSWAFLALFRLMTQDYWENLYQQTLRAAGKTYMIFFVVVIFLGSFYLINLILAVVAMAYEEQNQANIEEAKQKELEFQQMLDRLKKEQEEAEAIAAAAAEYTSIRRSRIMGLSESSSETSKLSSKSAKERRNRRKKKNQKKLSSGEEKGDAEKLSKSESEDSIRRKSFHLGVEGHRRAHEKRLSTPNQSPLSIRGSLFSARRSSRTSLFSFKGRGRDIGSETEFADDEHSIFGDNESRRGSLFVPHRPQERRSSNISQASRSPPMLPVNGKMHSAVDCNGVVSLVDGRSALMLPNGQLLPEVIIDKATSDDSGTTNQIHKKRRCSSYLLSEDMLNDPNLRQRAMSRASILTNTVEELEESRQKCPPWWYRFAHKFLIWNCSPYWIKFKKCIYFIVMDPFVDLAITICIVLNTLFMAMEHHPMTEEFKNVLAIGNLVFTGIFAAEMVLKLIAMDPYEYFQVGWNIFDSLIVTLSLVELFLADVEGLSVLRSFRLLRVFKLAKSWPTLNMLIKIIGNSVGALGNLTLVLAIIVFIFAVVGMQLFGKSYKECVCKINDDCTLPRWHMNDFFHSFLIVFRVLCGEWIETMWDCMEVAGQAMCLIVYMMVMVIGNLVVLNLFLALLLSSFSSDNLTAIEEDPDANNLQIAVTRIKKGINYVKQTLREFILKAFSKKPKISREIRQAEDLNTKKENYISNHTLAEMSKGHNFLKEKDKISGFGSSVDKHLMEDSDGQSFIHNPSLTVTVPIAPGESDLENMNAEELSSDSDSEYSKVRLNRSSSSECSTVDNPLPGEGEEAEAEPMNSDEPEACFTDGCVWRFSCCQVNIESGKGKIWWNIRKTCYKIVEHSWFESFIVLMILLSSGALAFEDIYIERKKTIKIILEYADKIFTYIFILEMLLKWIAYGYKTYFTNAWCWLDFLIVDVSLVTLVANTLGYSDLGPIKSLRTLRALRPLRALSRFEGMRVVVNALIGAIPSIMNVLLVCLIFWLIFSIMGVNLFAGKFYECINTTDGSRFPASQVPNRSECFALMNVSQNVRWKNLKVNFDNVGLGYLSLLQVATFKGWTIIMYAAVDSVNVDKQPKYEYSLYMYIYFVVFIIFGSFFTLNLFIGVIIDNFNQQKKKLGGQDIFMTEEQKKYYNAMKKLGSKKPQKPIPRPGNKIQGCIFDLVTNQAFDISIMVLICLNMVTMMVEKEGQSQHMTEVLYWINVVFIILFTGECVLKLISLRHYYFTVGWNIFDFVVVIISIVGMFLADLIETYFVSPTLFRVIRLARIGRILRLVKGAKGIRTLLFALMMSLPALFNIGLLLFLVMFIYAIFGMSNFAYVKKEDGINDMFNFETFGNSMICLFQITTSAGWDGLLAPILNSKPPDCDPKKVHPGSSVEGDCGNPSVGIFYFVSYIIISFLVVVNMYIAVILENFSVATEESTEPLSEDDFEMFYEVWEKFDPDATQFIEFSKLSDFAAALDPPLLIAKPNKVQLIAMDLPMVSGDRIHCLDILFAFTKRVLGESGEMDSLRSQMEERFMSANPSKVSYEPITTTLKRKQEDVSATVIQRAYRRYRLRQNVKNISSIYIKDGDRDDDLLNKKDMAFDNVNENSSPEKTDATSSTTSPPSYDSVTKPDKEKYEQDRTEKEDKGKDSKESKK

The pIC50 is the IC50 on a negative log10 scale, so that one unit is a factor of ten. As usually defined, the pKi is the Ki on a negative log10 scale, so that one unit is a factor of ten. Low values mean a large Ki, high ones a small Ki. For `O=C(N[C@@H](CO)C(=O)Nc1cccc(-c2ccc(Oc3ccc(F)cc3)cc2)n1)c1ccccn1`, in experiment [1], the pIC50 was 6.85. In addition, the negative logarithm of the Ki (pKi) in experiment [2] was 6.71.

For the origin of these results see ChEMBL document CHEMBL2151011, “Substituted pyridines as sodium channel blockers: patent highlight” (ACS Med Chem Lett, 2012).
